The values that follow are results of earlier work, collected in patent publication US20060120971A1, “Agents and methods for administration to the central nervous system” (SIGNUM PHARMACEUTICALS, INC., priority 2004, published 2006).

In the series the target is T1, carnitine palmitoyltransferase-1 (CPT1) (Rattus norvegicus, UniProt P32198).
T1 construct: decrease levels of CPT1 activity and increase the levels of LC-CoAs in the hypothalamus of healthy rats; host or cells: endogenous enzyme in brain/hypothalamus of conscious Sprague-Dawley rats (in vivo, ICV infusion)
T1 sequence (P32198 1-773): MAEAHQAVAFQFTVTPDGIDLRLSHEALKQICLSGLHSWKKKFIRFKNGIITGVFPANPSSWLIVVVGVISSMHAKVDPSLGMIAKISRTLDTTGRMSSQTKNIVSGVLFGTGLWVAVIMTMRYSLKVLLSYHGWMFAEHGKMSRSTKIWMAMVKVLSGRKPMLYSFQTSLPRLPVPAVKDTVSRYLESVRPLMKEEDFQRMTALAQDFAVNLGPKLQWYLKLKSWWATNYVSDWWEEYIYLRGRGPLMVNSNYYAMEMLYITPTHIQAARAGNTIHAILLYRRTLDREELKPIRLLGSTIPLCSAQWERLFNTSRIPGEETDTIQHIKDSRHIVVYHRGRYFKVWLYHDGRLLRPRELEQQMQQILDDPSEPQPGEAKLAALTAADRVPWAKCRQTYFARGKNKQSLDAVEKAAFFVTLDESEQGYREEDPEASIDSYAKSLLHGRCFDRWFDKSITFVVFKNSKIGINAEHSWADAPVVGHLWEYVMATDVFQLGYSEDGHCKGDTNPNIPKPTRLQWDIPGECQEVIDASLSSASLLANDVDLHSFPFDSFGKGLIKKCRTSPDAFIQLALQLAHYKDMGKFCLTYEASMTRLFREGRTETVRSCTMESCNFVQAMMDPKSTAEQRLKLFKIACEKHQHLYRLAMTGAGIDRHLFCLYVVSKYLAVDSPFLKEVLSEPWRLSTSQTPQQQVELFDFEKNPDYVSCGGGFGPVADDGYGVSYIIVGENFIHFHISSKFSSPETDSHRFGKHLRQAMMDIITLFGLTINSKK

Where [1] appears, read: healthy conscious Sprague-Dawley rats, continuous ICV infusion into third cerebral ventricle.

Consider `CCCCCCCCCCCCCCNC(=O)N[C@H](CC(=O)[O-])C[N+](C)(C)C` [ST1326, R-4-trimethylammonium-3-(tetradecylcarbamoyl)-aminobutyrate], for which the CPT1 activity result (brain of healthy rats, ICV infusion) is listed as “effectively decreasing”. Under setting [1], the endogenous glucose production result is given as “reduced” and the food intake result is given as “diminished”. Further, the “hypothalamic concentrations of LC-CoA” value (hypothalamus of healthy rats, ICV infusion) is given as “substantially increasing”.
